Measurements from patent publication US7879881B2, “Piperidinyl compounds that selectively bind integrins” (Janssen Pharmaceutica NV, priority 2002, dated 2011).
Read-outs that look alike come from different tables or passages of the source.

What was measured:
Human αvβ3 = target: T1, Human αvβ3 (Homo sapiens, UniProt P05106+P06756); test: In Vitro Solid Phase Purified αvβ3 Binding Assay (vitronectin/αvβ3); conditions: vitronectin binding to immobilized purified human αvβ3, mean ± spread
T1 construct: purchased Chemicon International Inc., Temecula, Calif
Experimental: In Vitro Solid Phase Purified αvβ3 Binding Assay
(§1) Human αvβ3 (Chemicon International Inc., Temecula, Calif.), at a concentration of 1 μg/ml dissolved in Tris buffer (20 mM Tris, 1 mM CaCl2, 1 mM MgCl2, 10 μM MnCl2, 150 mM NaCl), was immobilized on Immulon 96 well plates (Dynex Technologies, Chantilly, Va.) overnight at 4° C. Plates were washed and treated with blocking buffer (3% BSA in Tris buffer) for 2 h at 37° C. Plates were then rinsed 2 times with assay buffer comprised of Tris buffer. Synthesized compounds were added to wells in duplicate immediately prior to the addition of 2 nM vitronectin (Sigma, St. Louis, Mo.). Following a 3 hour incubation at 37° C., plates were washed 5 times in assay buffer. An anti-human vitronectin IgG rabbit polyclonal antibody (Calbiochem, San Diego, Calif.) was added (1:2000) and plates were incubated for 1 hour at room temperature. VectaStain ABC peroxidase kit reagents (Vector Laboratories, Burlingame, Calif.) employing a biotin labeled anti-rabbit IgG, were utilized for detection of bound antibody. Plates were read at 490 nm on a Molecular Devices (Sunnyvale, Calif.) microplate reader.

human purified αVβ5 = target: T2, human purified αVβ5 (Homo sapiens, UniProt P06756+P18084); test: In Vitro Solid Phase Purified αcβ5 Binding Assay (vitronectin/αVβ5); conditions: vitronectin binding to immobilized purified human αVβ5, mean ± spread
T2 construct: purchased Chemicon International, Inc
Experimental: as §1
In Vitro Solid Phase Purified αcβ5 Binding Assay
All other aspects of the assay including buffers, reagents and incubation times remain unchanged.

GP IIb/IIIa = GP IIb/IIIa (Homo sapiens, UniProt P05106+P08514); test: In Vitro Solid Phase Purified GP IIb/IIIa Binding Assay (biotinylated fibrinogen); conditions: biotinylated fibrinogen binding to immobilized purified GP IIb/IIIa, mean ± spread
Experimental: In Vitro Solid Phase Purified GP IIb/IIIa Binding Assay
The plate was covered and incubated overnight at 4° C. The GP IIb/IIIa solution was discarded and 150 μL of 5% BSA was added and incubated at RT for 1-3 h. The plate was washed extensively with modified Tyrodes buffer. Biotinylated fibrinogen (25 μL/well) at 2× final concentration was added to the wells that contain the test compounds (25 μL/well). The plate was covered and incubated at RT for 2-4 h. Twenty minutes prior to incubation completion, one drop of Reagent A (VectaStain ABC Horseradish Peroxidase kit, Vector Laboratories, Inc.) and one drop Reagent B were added with mixing to 5 mL modified Tyrodes buffer mix and let stand. The ligand solution was discarded and the plate washed (5×200 μL/well) with modified Tyrodes buffer. […] The Vecta Stain solution was discarded and the wells washed (5×200 μL/well) with modified Tyrodes buffer. Developing buffer (10 mL of 50 mM citrate/phosphate buffer @ pH 5.3, 6 mg o-phenylenediamine, 6 μL 30% H2O2; 50 μL/well) was added and incubated at RT for 3-5 min and then 2 N H2SO4 (50 μL/well) was added.

T2 sequence (P06756 31-889 limits assumed): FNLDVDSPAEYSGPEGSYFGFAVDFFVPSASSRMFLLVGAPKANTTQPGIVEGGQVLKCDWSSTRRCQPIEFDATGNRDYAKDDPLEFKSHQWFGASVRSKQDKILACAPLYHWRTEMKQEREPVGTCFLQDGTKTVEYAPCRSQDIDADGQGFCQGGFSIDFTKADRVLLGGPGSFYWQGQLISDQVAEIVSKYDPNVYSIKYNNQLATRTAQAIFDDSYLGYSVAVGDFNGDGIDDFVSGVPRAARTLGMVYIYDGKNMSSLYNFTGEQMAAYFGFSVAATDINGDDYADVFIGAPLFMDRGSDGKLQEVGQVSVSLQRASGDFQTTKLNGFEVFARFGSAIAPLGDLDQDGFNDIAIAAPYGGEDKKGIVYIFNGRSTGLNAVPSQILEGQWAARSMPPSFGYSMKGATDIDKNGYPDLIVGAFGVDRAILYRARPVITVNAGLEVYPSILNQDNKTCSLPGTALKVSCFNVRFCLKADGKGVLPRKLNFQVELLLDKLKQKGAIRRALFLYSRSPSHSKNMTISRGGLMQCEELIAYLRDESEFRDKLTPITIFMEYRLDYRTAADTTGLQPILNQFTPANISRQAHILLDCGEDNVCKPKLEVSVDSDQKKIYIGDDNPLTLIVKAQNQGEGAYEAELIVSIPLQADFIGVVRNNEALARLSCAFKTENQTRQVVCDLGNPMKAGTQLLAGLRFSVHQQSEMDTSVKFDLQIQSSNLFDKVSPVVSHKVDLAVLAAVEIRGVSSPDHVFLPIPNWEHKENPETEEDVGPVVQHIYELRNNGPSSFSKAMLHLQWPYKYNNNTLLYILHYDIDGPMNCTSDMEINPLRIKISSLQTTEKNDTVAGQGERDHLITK
T2 sequence (P06756 891-1048 partner limits assumed): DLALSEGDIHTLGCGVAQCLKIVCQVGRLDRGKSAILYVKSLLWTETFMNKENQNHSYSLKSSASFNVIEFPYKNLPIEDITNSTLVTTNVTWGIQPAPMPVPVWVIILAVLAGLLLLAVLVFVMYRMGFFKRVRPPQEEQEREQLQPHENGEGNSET
T2 sequence (P18084 24-799): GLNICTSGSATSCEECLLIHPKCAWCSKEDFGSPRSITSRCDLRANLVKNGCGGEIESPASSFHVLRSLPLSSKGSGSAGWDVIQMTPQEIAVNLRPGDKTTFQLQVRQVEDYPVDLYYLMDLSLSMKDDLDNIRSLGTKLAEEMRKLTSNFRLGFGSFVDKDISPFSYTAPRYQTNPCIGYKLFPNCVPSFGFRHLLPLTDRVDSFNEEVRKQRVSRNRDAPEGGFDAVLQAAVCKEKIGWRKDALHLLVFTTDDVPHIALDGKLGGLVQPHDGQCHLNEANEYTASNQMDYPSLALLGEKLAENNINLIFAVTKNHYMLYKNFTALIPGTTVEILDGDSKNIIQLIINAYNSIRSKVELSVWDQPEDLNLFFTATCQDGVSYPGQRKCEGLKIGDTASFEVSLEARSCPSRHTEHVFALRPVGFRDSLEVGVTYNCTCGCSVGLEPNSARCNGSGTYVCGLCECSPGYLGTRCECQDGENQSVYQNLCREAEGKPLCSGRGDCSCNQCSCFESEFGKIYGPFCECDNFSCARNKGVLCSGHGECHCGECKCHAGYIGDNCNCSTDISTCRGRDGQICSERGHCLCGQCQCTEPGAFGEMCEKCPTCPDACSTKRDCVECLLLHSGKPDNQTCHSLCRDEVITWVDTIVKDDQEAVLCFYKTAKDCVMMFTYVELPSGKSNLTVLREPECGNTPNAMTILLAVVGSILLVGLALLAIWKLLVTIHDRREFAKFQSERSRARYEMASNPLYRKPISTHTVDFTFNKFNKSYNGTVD
T1 sequence (P06756 31-889 limits assumed): as the sequence (P06756 31-889 limits assumed) above
T1 sequence (P06756 891-1048 partner limits assumed): as the sequence (P06756 891-1048 partner limits assumed) above
T1 sequence (P05106 27-788): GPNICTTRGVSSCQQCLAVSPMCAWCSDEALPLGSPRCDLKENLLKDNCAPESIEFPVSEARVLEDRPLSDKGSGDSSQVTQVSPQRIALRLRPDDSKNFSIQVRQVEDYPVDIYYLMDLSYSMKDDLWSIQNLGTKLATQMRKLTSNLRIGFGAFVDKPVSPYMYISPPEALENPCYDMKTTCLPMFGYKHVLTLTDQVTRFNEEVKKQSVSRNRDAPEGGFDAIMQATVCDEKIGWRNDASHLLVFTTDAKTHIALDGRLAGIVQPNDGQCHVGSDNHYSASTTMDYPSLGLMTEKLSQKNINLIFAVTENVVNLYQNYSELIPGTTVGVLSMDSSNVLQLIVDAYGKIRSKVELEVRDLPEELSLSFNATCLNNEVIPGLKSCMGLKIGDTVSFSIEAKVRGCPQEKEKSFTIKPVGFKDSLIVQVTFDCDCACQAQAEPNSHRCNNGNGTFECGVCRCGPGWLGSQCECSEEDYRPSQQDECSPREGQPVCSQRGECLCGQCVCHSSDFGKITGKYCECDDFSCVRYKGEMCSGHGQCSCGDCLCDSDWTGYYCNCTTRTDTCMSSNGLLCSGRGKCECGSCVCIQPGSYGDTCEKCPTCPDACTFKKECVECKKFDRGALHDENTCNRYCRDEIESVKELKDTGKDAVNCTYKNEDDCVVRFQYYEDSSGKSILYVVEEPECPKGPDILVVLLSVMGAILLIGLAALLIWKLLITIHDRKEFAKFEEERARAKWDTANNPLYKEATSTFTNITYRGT
Sequence of GP IIb/IIIa (P08514 32-887 limits assumed): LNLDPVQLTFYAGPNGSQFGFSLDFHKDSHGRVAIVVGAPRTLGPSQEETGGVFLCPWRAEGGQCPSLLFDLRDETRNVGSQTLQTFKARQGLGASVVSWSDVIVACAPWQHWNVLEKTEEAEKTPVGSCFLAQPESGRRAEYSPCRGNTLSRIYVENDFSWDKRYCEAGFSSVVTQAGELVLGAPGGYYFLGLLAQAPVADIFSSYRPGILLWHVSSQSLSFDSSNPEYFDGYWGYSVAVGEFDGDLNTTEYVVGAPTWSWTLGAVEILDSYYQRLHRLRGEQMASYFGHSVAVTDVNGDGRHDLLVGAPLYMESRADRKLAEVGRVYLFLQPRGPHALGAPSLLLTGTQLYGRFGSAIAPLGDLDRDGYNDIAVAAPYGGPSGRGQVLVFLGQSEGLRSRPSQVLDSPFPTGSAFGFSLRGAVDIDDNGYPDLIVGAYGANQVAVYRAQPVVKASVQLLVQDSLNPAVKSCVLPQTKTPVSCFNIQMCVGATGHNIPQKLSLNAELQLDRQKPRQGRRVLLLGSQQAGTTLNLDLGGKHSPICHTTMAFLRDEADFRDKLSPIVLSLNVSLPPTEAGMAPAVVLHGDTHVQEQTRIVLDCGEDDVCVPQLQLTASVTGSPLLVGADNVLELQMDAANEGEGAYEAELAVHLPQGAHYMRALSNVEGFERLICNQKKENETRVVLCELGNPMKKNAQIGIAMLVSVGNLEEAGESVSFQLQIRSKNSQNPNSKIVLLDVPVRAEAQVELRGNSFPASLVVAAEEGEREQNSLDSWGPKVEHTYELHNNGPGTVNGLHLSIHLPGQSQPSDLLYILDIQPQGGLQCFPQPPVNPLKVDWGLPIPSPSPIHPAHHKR
Sequence of GP IIb/IIIa (P08514 891-1039 partner limits assumed): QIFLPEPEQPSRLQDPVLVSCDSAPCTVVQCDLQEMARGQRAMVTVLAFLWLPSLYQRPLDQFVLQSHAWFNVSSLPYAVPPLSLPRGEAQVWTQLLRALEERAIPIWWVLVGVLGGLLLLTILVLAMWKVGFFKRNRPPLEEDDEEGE
Sequence of GP IIb/IIIa (P05106 27-788): as the sequence (P05106 27-788) above

IC50 (Human αvβ3; read-out: αvβ3IC50) | IC50 (human purified αVβ5; read-out: αvβ5 IC50) | IC50 (GP IIb/IIIa; read-out: αIIbβ3 IC50) | Structure (SMILES) | IC50 (GP IIb/IIIa; αIIbβ3 IC50 (uM)) | IC50 (Human αvβ3; αvβ3IC50 (uM)) | IC50 (human purified αVβ5; αvβ5 IC50 (uM))
0.0008 ± 6e-05 µM | 0.0007 ± 0.0002 µM | 3.11 ± 0.04 µM | O=C(O)CC(CC1CCN(C(=O)CCc2ccc3c(n2)NCCC3)CC1)c1ccc2c(c1)OCC2 (stereo not drawn) [Cpd 36, β-(2,3-dihydro-6-benzofuranyl)-1-[1-oxo-3-(5,6,7,8-tetrahydro-1,8-naphthyridin-2-yl)propyl]-4-piperidinebutanoic acid] | – | – | –
0.0017 ± 0.0005 µM | 0.0347 ± 0.0117 µM | 0.24 µM | O=C(O)CC(CCC1CCN(C(=O)c2cccc(NC3=NCC(O)CN3)c2)CC1)c1ccc2c(c1)OCO2 (stereo not drawn) [Cpd 54, β-(1,3-benzodioxol-5-yl)-1-[3-[(1,4,5,6-tetrahydro-5-hydroxy-2-pyrimidinyl)amino]benzoyl]-4-piperidinepentanoic acid] | – | – | –
0.0179 ± 0.0034 µM | 0.253 µM | 1.36 ± 0.43 µM | O=C(O)CC(CCC1CCN(C(=O)CCc2ccc3c(n2)NCCC3)CC1)c1cccnc1 (stereo not drawn) [Cpd 8, β-[2-[1-[1-Oxo-3-(5,6,7,8-tetrahydro-1,8-naphthyridin-2-yl)propyl]-4-piperidinyl]ethyl]-3-pyridinepropanoic acid] | – | – | –
0.0011 ± 0.0002 µM | 0.0023 ± 0.0009 µM | 2.52 ± 0.3 µM | O=C(O)CC(CC1CCN(C(=O)CCc2ccc3c(n2)NCCC3)CC1)c1ccc2c(c1)OCO2 (stereo not drawn) [Cpd 11, β-(1,3-Benzodioxol-5-yl)-1-[1-oxo-3-(5,6,7,8-tetrahydro-1,8-naphthyridin-2-yl)propyl]-4-piperidinebutanoic acid] | – | – | –
0.0014 ± 0.0007 µM | 0.0046 ± 0.0017 µM | 1.47 ± 0.37 µM | COc1ncc(C(CC(=O)O)CC2CCN(C(=O)CCc3ccc4c(n3)NCCC4)CC2)c(OC)n1 (stereo not drawn) [Cpd 47, 2,4-dimethoxy-β-[[1-[1-oxo-3-(5,6,7,8-tetrahydro-1,8-naphthyridin-2-yl)propyl]-4-piperidinyl]methyl]-5-pyrimidinepropanoic acid] | – | – | –
0.001 ± 0.0005 µM | 0.0033 ± 0.0014 µM | 1.21 ± 0.2 µM | COc1ncc(C(CC(=O)O)CC2CCN(C(=O)CCc3ccc4c(n3)NCCC4)CC2)cn1 (stereo not drawn) [Cpd 48, 2-methoxy-β-[[1-[1-oxo-3-(5,6,7,8-tetrahydro-1,8-naphthyridin-2-yl)propyl]-4-piperidinyl]methyl]-5-pyrimidinepropanoic acid] | – | – | –
0.0035 ± 0.0006 µM | 0.0659 ± 0.0171 µM | 13.6 ± 1.33 µM | O=C(O)CC(CC1CCN(C(=O)CCc2ccc3c(n2)NCCC3)CC1)c1ccc2c(c1)CCO2 (stereo not drawn) [Cpd 46, β-(2,3-dihydro-5-benzofuranyl)-1-[1-oxo-3-(5,6,7,8-tetrahydro-1,8-naphthyridin-2-yl)propyl]-4-piperidinebutanoic acid] | – | – | –
0.0158 ± 0.0043 µM | 0.0897 ± 0.0116 µM | > 50 µM | O=C(O)CC(CC1CCN(C(=O)CCc2ccc3c(n2)NCCC3)CC1)c1cc(F)cc(F)c1 (stereo not drawn) [Cpd 37, β-(3,5-difluorophenyl)-1-[1-oxo-3-(5,6,7,8-tetrahydro-1,8-naphthyridin-2-yl)propyl]-4-piperidinebutanoic acid] | – | – | –
0.193 µM | > 1 µM | > 50 µM | CC(C)(C)C(=O)OCOC(=O)CCCC1CCN(C(=O)CCc2ccc3c(n2)NCCC3)CC1 [Cpd 74, 4-[1-(3-5,6,7,8-Tetrahydro-[1,8]naphthyridin-2-yl-propionyl)-piperidin-4-yl]-butyric acid 2,2-dimethyl-propionyloxymethyl ester] | – | – | –
0.0213 ± 0.0019 µM | 0.841 ± 0.405 µM | 5.31 µM | COc1ccc(C(CCC2CCN(C(=O)CCc3ccc4c(n3)NCCC4)CC2)CC(=O)O)cn1 (single isomer, unassigned) [Cpd 21a, 6-methoxy-β-[2-[1-[1-oxo-3-(5,6,7,8-tetrahydro-1,8-naphthyridin-2-yl)propyl]-4-piperidinyl]ethyl]-3-pyridinepropanoic acid] | – | – | –
0.0079 ± 0.0007 µM | 0.222 ± 0.0885 µM | 28.8 ± 15.8 µM | O=C(O)CC(CC1CCN(C(=O)CCc2ccc3c(n2)NCCC3)CC1)c1ccc(Oc2ccccc2)cc1 (stereo not drawn) [Cpd 43, 1-[1-oxo-3-(5,6,7,8-tetrahydro-1,8-naphthyridin-2-yl)propyl]-β-(4-phenoxyphenyl)-4-piperidinebutanoic acid] | – | – | –
0.095 µM | 0.737 µM | 15.6 µM | O=C(O)CC(CCC1CCN(C(=O)Cc2ccc3c(n2)NCCC3)CC1)c1ccc2c(c1)OCO2 (stereo not drawn) [Cpd 55, β-(1,3-benzodioxol-5-yl)-1-[(5,6,7,8-tetrahydro-1,8-naphthyridin-2-yl)acetyl]-4-piperidinepentanoic acid] | – | – | –
0.0008 ± 0.0001 µM | 0.0313 ± 0.006 µM | 6.6 ± 1.42 µM | COc1ccc(C(CC(=O)O)C2CCN(C(=O)CCCc3ccc4c(n3)NCCC4)CC2)cn1 (stereo not drawn) [Cpd 17, 6-methoxy-β-[1-[1-oxo-4-(5,6,7,8-tetrahydro-1,8-naphthyridin-2-yl)butyl]-4-piperidinyl]-3-pyridinepropanoic acid] | – | – | –
0.0082 ± 0.0014 µM | 0.0395 ± 0.0085 µM | 1.67 ± 0.74 µM | O=C(O)CC(CCC1CCN(C(=O)c2cccc(NC3=NCC(O)CN3)c2)CC1)c1cccnc1 (stereo not drawn) [Cpd 7, β-[2-[1-[3-[(1,4,5,6-Tetrahydro-5-hydroxy-2-pyrimidinyl)amino]benzoyl]-4-piperidinyl]ethyl]-3-pyridinepropanoic acid] | – | – | –
0.326 ± 0.0894 µM | 0.81 ± 0.104 µM | – | O=C(O)CC(CC1CCN(C(=O)CCc2ccc3c(n2)NCCC3)CC1)c1ccc2ccccc2c1 (single isomer, unassigned) [Cpd 56b, 3-Naphthalen-2-yl-4-[1-(3-5,6,7,8-tetrahydro-[1,8]naphthyridin-2-yl-propionyl)-piperidin-4-yl]-butyric acid] | – | – | –
0.138 µM | 0.789 ± 0.065 µM | – | O=C(O)CC(CC1CCN(C(=O)c2cccc(NC3=NCCN3)c2)CC1)c1cccc(F)c1 (racemic) [Cpd 77] | – | – | –
5.4 µM | – | 4.78 ± 1.01 µM | O=C(O)CCC1CCN(C(=O)CCc2cccc(NC3=NCCCN3)c2)CC1 [Cpd 2, 1-[1-Oxo-3-[3-[(1,4,5,6-tetrahydro-2-pyrimidinyl)amino]phenyl]propyl]-4-piperidinepropanoic acid] | – | – | –
> 1 µM | – | 8.51 ± 2.36 µM | O=C(O)CC(CCC1CCN(C(=O)CCCNc2ccccn2)CC1)c1cccnc1 (stereo not drawn) [Cpd 9, β-[2-[1-[1-Oxo-4-(2-pyridinylamino)butyl]-4-piperidinyl]ethyl]-3-pyridinepropanoic acid] | – | – | –

Structure (SMILES) | IC50 (Human αvβ3; read-out: αvβ3IC50) | IC50 (human purified αVβ5; read-out: αvβ5 IC50) | IC50 (GP IIb/IIIa; read-out: αIIbβ3 IC50) | IC50 (GP IIb/IIIa; αIIbβ3 IC50 (uM)) | IC50 (Human αvβ3; αvβ3IC50 (uM)) | IC50 (human purified αVβ5; αvβ5 IC50 (uM))
O=C(O)CC(CC1CCN(C(=O)CCc2ccc3c(n2)NCCC3)CC1)C1CNc2ccccc2C1 (stereo not drawn) [Cpd 19, 1,2,3,4-tetrahydro-β-[[1-[1-oxo-3-(5,6,7,8-tetrahydro-1,8-naphthyridin-2-yl)propyl]-4-piperidinyl]methyl]-3-quinolinepropanoic acid] | 0.0025 ± 0.0004 µM | 0.0171 ± 0.0025 µM | – | 13.8 ± 9.69 µM | – | –
O=C(O)CC(CC1CCN(C(=O)CCc2ccc3c(n2)NCCC3)CC1)c1cnc2ccccc2c1 (stereo not drawn) [Cpd 32, β-[[1-[1-oxo-3-(5,6,7,8-tetrahydro-1,8-naphthyridin-2-yl)propyl]-4-piperidinyl]methyl]-3-quinolinepropanoic acid] | – | – | 1.05 ± 0.56 µM | – | 0.0008 ± 0.0002 µM | 0.0022 ± 0.0007 µM
O=C(O)CC(CC1CCN(C(=O)CCc2ccc3c(n2)NCCC3)CC1)C1CNc2ccccc2C1 (single isomer, unassigned) [Cpd 19-2, 1,2,3,4-tetrahydro-β-[[1-[1-oxo-3-(5,6,7,8-tetrahydro-1,8-naphthyridin-2-yl)propyl]-4-piperidinyl]methyl]-3-quinolinepropanoic acid] | 0.0013 ± 0.0001 µM | 0.0092 ± 0.0004 µM | 12.9 µM | – | – | –
O=C(O)CC(C1CCN(C(=O)CCCc2ccc3c(n2)NCCC3)CC1)C1CNc2ccccc2C1 (single isomer, unassigned) [Cpd 5-3, 1,2,3,4-Tetrahydro-β-[1-[1-oxo-4-(5,6,7,8-tetrahydro-1,8-naphthyridin-2-yl)butyl]-4-piperidinyl]-3-quinolinepropanoic acid] | – | > 5 µM | – | – | 0.161 µM | –
O=C(O)CC(CC1CCN(C(=O)CCc2ccc3c(n2)NCCC3)CC1)C1CNc2ccccc2C1 (single isomer, unassigned) [Cpd 19-3, 1,2,3,4-tetrahydro-β-[[1-[1-oxo-3-(5,6,7,8-tetrahydro-1,8-naphthyridin-2-yl)propyl]-4-piperidinyl]methyl]-3-quinolinepropanoic acid] | 0.0447 ± 0.0204 µM | 1.17 ± 0.02 µM | – | – | – | –
